US20100179122A1 (priority 2005, published 2010)

System: acute HIV infection of T-lymphoid cells
Assay: Assay for inhibition of HIV replication (spread assay)
Type: cell-based
Conditions: Human immunodeficiency virus 1, T-lymphoid, read-out: IC95, spread assay
Method: An assay for the inhibition of acute HIV infection of T-lymphoid cells (alternatively referred to herein as the “spread assay”) was conducted in accordance with Vacca, J. P. et al., Proc. Natl. Acad. Sci. USA 1994, 91: 4096. […] The compounds set forth in the other Examples were not tested in the spread assay.

Structure (SMILES)	IC95
O=C(Nc1[nH]c2ccc(Br)cc2c1S(=O)(=O)N1CCCC1)N1CCC1 [Example 96, N-[5-bromo-3-(pyrrolidin-1-ylsulfonyl)-1H-indol-2-yl]azetidine-1-carboxamide]	1000 to 10000 nM

Same assay, conditions: Human immunodeficiency virus 1; inhibition of acute HIV infection of T-lymphoid cells; read-out: IC95, spread assay

Structure (SMILES)	IC95
O=C(COCc1ccccc1)Nc1[nH]c2ccc(Cl)cc2c1S(=O)(=O)c1ccccc1 [Example 6, 2-(benzyloxy)-N-[5-chloro-3-(phenylsulfonyl)-1H-indol-2-yl]acetamide]	< 1000 nM
CCC(=O)Nc1[nH]c2ccc(Cl)cc2c1S(=O)(=O)c1ccccc1 [Example 7, N-[5-chloro-3-(phenylsulfonyl)-1H-indol-2-yl]propanamide]	< 1000 nM
O=C(Nc1[nH]c2ccc(Cl)cc2c1S(=O)(=O)c1ccccc1)C1CCC1 [Example 9, N-[5-chloro-3-(phenylsulfonyl)-1H-indol-2-yl]cyclobutanecarboxamide]	< 1000 nM
O=C(CNC1CC1)Nc1[nH]c2ccc(Cl)cc2c1S(=O)(=O)c1ccccc1 [Example 12, N^1-[5-chloro-3-(phenylsulfonyl)-1H-indol-2-yl]-N^2-cyclopropylglycinamide]	< 1000 nM
O=C(Cc1ccc(F)cc1)Nc1[nH]c2ccc(Cl)cc2c1S(=O)(=O)c1ccccc1 [Example 16, N-[5-chloro-3-(phenylsulfonyl)-1H-indol-2-yl]-2-(4-fluorophenyl)acetamide]	< 1000 nM
O=C(CN1CCCC(F)(F)C1)Nc1[nH]c2ccc(Cl)cc2c1S(=O)(=O)c1ccccc1 [Example 17, N-[5-chloro-3-(phenylsulfonyl)-1H-indol-2-yl]-2-(3,3-difluoropiperidin-1-yl)acetamide]	< 1000 nM
O=C(Nc1[nH]c2ccc(Cl)cc2c1S(=O)(=O)c1ccccc1)c1ccc(F)cc1F [Example 18, N-[5-chloro-3-(phenylsulfonyl)-1H-indol-2-yl]-2,4-difluorobenzamide]	< 1000 nM
O=C(Nc1[nH]c2ccc(Cl)cc2c1S(=O)(=O)c1ccccc1)c1ccccc1F [Example 19, N-[5-chloro-3-(phenylsulfonyl)-1H-indol-2-yl]-2-fluorobenzamide]	< 1000 nM
O=C(Nc1[nH]c2ccc(Cl)cc2c1S(=O)(=O)c1ccccc1)c1ccncc1 [Example 20, N-[5-chloro-3-(phenylsulfonyl)-1H-indol-2-yl]isonicotinamide]	< 1000 nM
Cc1ccoc1C(=O)Nc1[nH]c2ccc(Cl)cc2c1S(=O)(=O)c1ccccc1 [Example 24, N-[5-chloro-3-(phenylsulfonyl)-1H-indol-2-yl]-3-methyl-2-furamide]	< 1000 nM
O=C(Nc1[nH]c2ccc(Cl)cc2c1S(=O)(=O)c1ccccc1)c1cccc(F)c1 [Example 25, N-[5-chloro-3-(phenylsulfonyl)-1H-indol-2-yl]-3-fluorobenzamide]	< 1000 nM
CCOC(=O)CNC(=O)Nc1[nH]c2ccc(Cl)cc2c1S(=O)(=O)c1ccccc1 [Example 27, ethyl N-({[5-chloro-3-(phenylsulfonyl)-1H-indol-2-yl]amino}carbonyl)glycinate]	< 1000 nM
O=C(Nc1[nH]c2ccc(Cl)cc2c1S(=O)(=O)c1ccccc1)c1ccccc1 [Example 28, N-[5-chloro-3-(phenylsulfonyl)-1H-indol-2-yl]benzamide]	< 1000 nM
O=C(Nc1cccc(F)c1)Nc1[nH]c2ccc(Cl)cc2c1S(=O)(=O)c1ccccc1 [Example 29, N-[5-chloro-3-(phenylsulfonyl)-1H-indol-2-yl]-N′-(3-fluorophenyl)urea]	< 1000 nM
COCC(=O)Nc1[nH]c2ccc(Cl)cc2c1S(=O)(=O)c1ccccc1 [Example 34, N-[5-chloro-3-(phenylsulfonyl)-1H-indol-2-yl]-2-methoxyacetamide]	< 1000 nM
O=C(Nc1ccccc1)Nc1[nH]c2ccc(Cl)cc2c1S(=O)(=O)c1ccccc1 [Example 35, N-[5-chloro-3-(phenylsulfonyl)-1H-indol-2-yl]-N′-phenylurea]	< 1000 nM
O=C(Nc1ccccc1C(F)(F)F)Nc1[nH]c2ccc(Cl)cc2c1S(=O)(=O)c1ccccc1 [Example 41, N-[5-chloro-3-(phenylsulfonyl)-1H-indol-2-yl]-N′-[2-(trifluoromethyl)phenyl]urea]	< 1000 nM
Cn1ccnc1CNCC(=O)Nc1[nH]c2ccc(Cl)cc2c1S(=O)(=O)c1ccccc1 [Example 42, N^1-[5-chloro-3-(phenylsulfonyl)-1H-indol-2-yl]-N^2-[(1-methyl-1H-imidazol-2-yl)methyl]glycinamide]	< 1000 nM
Cc1cccc(CNC(=O)Nc2[nH]c3ccc(Cl)cc3c2S(=O)(=O)c2ccccc2)c1 [Example 43, N-[5-chloro-3-(phenylsulfonyl)-1H-indol-2-yl]-N′-(3-methylbenzyl)urea]	< 1000 nM
O=C(Nc1[nH]c2ccc(Cl)cc2c1S(=O)(=O)c1ccccc1)NC1CCCC1 [Example 44, N-[5-chloro-3-(phenylsulfonyl)-1H-indol-2-yl]-N′-cyclopentylurea]	< 1000 nM

Structure (SMILES)	IC95
CC1(CNCC(=O)Nc2[nH]c3ccc(Cl)cc3c2S(=O)(=O)c2ccccc2)COC1 [Example 45, N^1-[5-chloro-3-(phenylsulfonyl)-1H-indol-2-yl]-N^2-[(3-methyloxetan-3-yl)methyl]glycinamide]	< 1000 nM
CCC(C)NC(=O)Nc1[nH]c2ccc(Cl)cc2c1S(=O)(=O)c1ccccc1 (centres unmarked) [Example 46, N-(sec-butyl)-N′-[5-chloro-3-(phenylsulfonyl)-1H-indol-2-yl]urea]	< 1000 nM
O=C(Nc1[nH]c2ccc(Cl)cc2c1S(=O)(=O)c1ccccc1)C1CCCC1 [Example 47, N-[5-chloro-3-(phenylsulfonyl)-1H-indol-2-yl]cyclopentanecarboxamide]	< 1000 nM
CCCCNC(=O)Nc1[nH]c2ccc(Cl)cc2c1S(=O)(=O)c1ccccc1 [Example 48, N-butyl-N′-[5-chloro-3-(phenylsulfonyl)-1H-indol-2-yl]urea]	< 1000 nM
O=C(NCCc1ccccc1)Nc1[nH]c2ccc(Cl)cc2c1S(=O)(=O)c1ccccc1 [Example 49, N-[5-chloro-3-(phenylsulfonyl)-1H-indol-2-yl]-N′-(2-phenylethyl)urea]	1000 to 10000 nM
O=C(NCc1cccc(F)c1)Nc1[nH]c2ccc(Cl)cc2c1S(=O)(=O)c1ccccc1 [Example 50, N-[5-chloro-3-(phenylsulfonyl)-1H-indol-2-yl]-N′-(3-fluorobenzyl)urea]	< 1000 nM
COc1cccc(CNCC(=O)Nc2[nH]c3ccc(Cl)cc3c2S(=O)(=O)c2ccccc2)c1 [Example 51, N^1-[5-chloro-3-(phenylsulfonyl)-1H-indol-2-yl]-N^2-(3-methoxybenzyl)glycinamide]	< 1000 nM
O=C(NCc1ccc(F)cc1)Nc1[nH]c2ccc(Cl)cc2c1S(=O)(=O)c1ccccc1 [Example 52, N-[5-chloro-3-(phenylsulfonyl)-1H-indol-2-yl]-N′-(4-fluorobenzyl)urea]	< 1000 nM
CS(=O)(=O)N1CCN(CC(=O)Nc2[nH]c3ccc(Cl)cc3c2S(=O)(=O)c2ccccc2)CC1 [Example 53, N-[5-chloro-3-(phenylsulfonyl)-1H-indol-2-yl]-2-[4-(methylsulfonyl)piperazin-1-yl]acetamide]	< 1000 nM
O=C(CN1CCC(c2ccccn2)C1)Nc1[nH]c2ccc(Cl)cc2c1S(=O)(=O)c1ccccc1 (centres unmarked) [Example 56, N-[5-chloro-3-(phenylsulfonyl)-1H-indol-2-yl]-2-(3-pyridin-2-ylpyrrolidin-1-yl)acetamide]	< 1000 nM
O=C(Nc1[nH]c2ccc(Cl)cc2c1S(=O)(=O)c1ccccc1)NC1CCCCC1 [Example 57, N-[5-chloro-3-(phenylsulfonyl)-1H-indol-2-yl]-N′-cyclohexylurea]	< 1000 nM
O=C(Nc1[nH]c2ccc(Cl)cc2c1S(=O)(=O)c1ccccc1)NC1CC1c1ccccc1 (centres unmarked) [Example 58, N-[5-chloro-3-(phenylsulfonyl)-1H-indol-2-yl]-N′-(2-phenylcyclopropyl)urea]	< 1000 nM
CC(NCC(=O)Nc1[nH]c2ccc(Cl)cc2c1S(=O)(=O)c1ccccc1)c1ccccc1 (centres unmarked) [Example 59, 2-{[5-chloro-3-(phenylsulfonyl)-1H-indol-2-yl]amino}-2-oxo-N-(1-phenylethyl)ethanamine]	< 1000 nM
O=C(Nc1[nH]c2ccc(Cl)cc2c1S(=O)(=O)c1ccccc1)C1CCCCC1 [Example 60, N-[5-chloro-3-(phenylsulfonyl)-1H-indol-2-yl]cyclohexanecarboxamide]	< 1000 nM
CN1CCN(CC(=O)Nc2[nH]c3ccc(Cl)cc3c2S(=O)(=O)c2ccccc2)CC1 [Example 61, N-[5-chloro-3-(phenylsulfonyl)-1H-indol-2-yl]-2-(4-methylpiperazin-1-yl)acetamide]	< 1000 nM
CC(C)NC(=O)Nc1[nH]c2ccc(Cl)cc2c1S(=O)(=O)c1ccccc1 [Example 62, N-[5-chloro-3-(phenylsulfonyl)-1H-indol-2-yl]-N′-isopropylurea]	< 1000 nM
O=C(COc1ccccc1)Nc1[nH]c2ccc(Cl)cc2c1S(=O)(=O)c1ccccc1 [Example 65, N-[5-chloro-3-(phenylsulfonyl)-1H-indol-2-yl]-2-phenoxyacetamide]	< 1000 nM
O=C(Nc1cc(F)cc(F)c1)Nc1[nH]c2ccc(Cl)cc2c1S(=O)(=O)c1ccccc1 [Example 66, N-[5-chloro-3-(phenylsulfonyl)-1H-indol-2-yl]-N′-(3,5-difluorophenyl)urea]	< 1000 nM
O=C(Nc1cccc(C(F)(F)F)c1)Nc1[nH]c2ccc(Cl)cc2c1S(=O)(=O)c1ccccc1 [Example 68, N-[5-chloro-3-(phenylsulfonyl)-1H-indol-2-yl]-N′-[3-(trifluoromethyl)phenyl]urea]	< 1000 nM
O=C(NCc1c(F)cccc1Cl)Nc1[nH]c2ccc(Br)cc2c1S(=O)(=O)N1CCCC1 [Example 95, N-[5-bromo-3-(pyrrolidin-1-ylsulfonyl)-1H-indol-2-yl]-N′-(2-chloro-6-fluorobenzyl)urea]	< 1000 nM
